In paper PMC8999917, “Structure–Activity Relationship of Synthetic Ginkgolic Acid Analogs for Treating Type 2 Diabetes by PTPN9 Inhibition” (International Journal of Molecular Sciences, 2022) one finds AMPK phosphorylation data, which are given here for one compound.

The subject of test [1] is AMPK phosphorylation. In words: Western blot of AMPK phosphorylation in mature 3T3-L1 adipocytes. It is filed as cell-based, mouse. To be noted: 5 or 10 µM for 1 h. As to the method: To further elucidate the pathway involved in 1e-mediated glucose uptake promotion, AMPK and Akt phosphorylation in mature 3T3-L1 adipocytes was evaluated via Western blotting following treatment with 5 or 10 µM 1e for 1 h.
(§1) The expression levels of glucose uptake-related proteins were determined via Western blotting, as previously described. In brief, differentiated 3T3-L1 cells were plated in six-well plates at a 1.5 × 10^4 cells/well density in a final volume of 2 mL. Then, the cells were incubated in the presence of DMSO or different concentrations of the compounds and harvested using a RIPA buffer (Sigma-Aldrich, Saint Louis, MS, USA) and a protease inhibitor cocktail (Roche Korea, Seoul, Korea) after 1 h of incubation. Equivalent amounts of proteins (20 µg) from each lysate were separated by 10% SDS-PAGE and transferred onto PVDF membranes (Merk KgaA, Darmstadt, Germany), where they were maintained for 120 min at 200 mA. The membranes were blocked with 5% skim milk for 1 h at room temperature in 0.1% TBST and then probed with primary antibodies at different concentrations in 0.1% BSA overnight at 4 °C according to the manufacturer’s instructions. Secondary antibodies were added to the membranes at a concentration of 1:2000 for 1 h at room temperature, and immunoreactive bands were detected via ECL (GE Healthcare Korea Co., Ltd., Incheon, Korea). […]
For orientation: Immunoblotting shows a protein as a band on a membrane.

In test [2] the test system is AMPK phosphorylation. The experiment in a line: Western blot of AMPK phosphorylation in C2C12 myotubes. It is filed as cell-based, mouse. As to the method: To further investigate the mechanism of action of 1e, we evaluated its effects on AMPK and AKT phosphorylation in C2C12 myotubes. […] In line with the results obtained in 3T3-L1 cells, in the absence of insulin, 1e had no effects on basal p-Akt expression levels (Figure 6A).
as §1, with “The membranes were blocked with 5% skim milk for 1 h at room temperature in 0.1% TBST and then probed with primary antibodies at different concentrations in 0.1% BSA overnight at 4 °C according to the manufacturer’s instructions.” left out

In the case of `CCCCCCCCCCCCCOc1cccc(O)c1C(=O)O` [Compound 1e], the AMPK phosphorylation entry is reported as “significantly induced AMPK phosphorylation in a concentration-dependent manner” in the test on AMPK phosphorylation [1] and “significantly upregulated AMPK phosphorylation in a concentration-dependent manner” in the test on AMPK phosphorylation [2].
